The target of data set [1] is T1, α1 adrenergic receptors (Rattus norvegicus, UniProt P15823).
T1 construct: cellular membranes containing α-receptors; from tissue; host or cells: liver membranes of male Sprague-Dawley rats
T1 sequence (P15823 1-515): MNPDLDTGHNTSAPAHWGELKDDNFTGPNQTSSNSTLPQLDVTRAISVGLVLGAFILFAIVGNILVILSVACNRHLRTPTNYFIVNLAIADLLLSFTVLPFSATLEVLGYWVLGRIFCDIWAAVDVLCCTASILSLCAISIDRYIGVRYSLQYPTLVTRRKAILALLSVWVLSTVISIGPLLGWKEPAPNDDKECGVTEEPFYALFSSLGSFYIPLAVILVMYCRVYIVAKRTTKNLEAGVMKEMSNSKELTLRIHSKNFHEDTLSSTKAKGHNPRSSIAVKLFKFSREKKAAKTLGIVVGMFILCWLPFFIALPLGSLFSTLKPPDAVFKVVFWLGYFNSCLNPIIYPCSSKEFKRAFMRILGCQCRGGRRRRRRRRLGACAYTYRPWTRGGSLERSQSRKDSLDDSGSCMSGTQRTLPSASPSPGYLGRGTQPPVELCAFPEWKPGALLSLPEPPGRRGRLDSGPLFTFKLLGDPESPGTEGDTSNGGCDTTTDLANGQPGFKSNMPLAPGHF
Briefly: α1 adrenergic receptor binding: competition with tritiated prazosin in rat liver membranes. On the set-up: species or system male Sprague-Dawley rats. To be noted: [3H]prazosin 0.2 nM, 22° C., 50 min, mean, read-out: α1 Receptor pKI (converted). The procedure: (§1) The technique is well known and described in the literature. The pKI, or negative logarithm of the binding equilibrium constant, is determined from the experimental data for each receptor and the degree of selectivity of the compound in question for α1 over α2 receptors can be measured by the antilogarithm of the differences between the pKI values for the two receptors.
(§2) α-Adrenergic binding data were obtained for the two enantiomers of terazosin and the racemic compound. Tissue from the liver and cerebral cortex of male Sprague-Dawley rats was homogenized in ice-cold assay buffer (Tris-HCl, 50 mM, pH 7.0 and 22° C.). After centrifugation at 48,000 g for ten minutes the resulting pellets, containing cellular membranes containing α-receptors, were resuspended in 20 volumes of assay buffer and recentrifuged for ten minutes at 48,000 g. Liver membranes were diluted 200-fold and cerebral cortex tissues 50-fold with assay buffer.
(§3) Binding to α1 adrenergic receptors was characterized with liver membranes in competition studies using tritiated prazosin (82 Ci/mmol, DuPont NEN; 0.2 nM) and six concentrations of each test compound at half-log incremental concentrations. Binding to α2 adrenergic receptors was characterized in cerebral cortex tissue using tritiated rauwolscine (82.2 Ci/mMol, DuPont NEN; 0.5 nM) and six concentrations of competing test compound. Equilibrium binding was characterized after a 50 minute incubation period at 22° C.
(§4) where [L] is the concentration of radioligand and KD is the equilibrium dissociation constant of the radioligand for the receptor.

For data set [2], the target named is α2 adrenergic receptors. Nature of the data set: α2 adrenergic receptor binding: competition with tritiated rauwolscine in rat cerebral cortex tissue. On the set-up: species or system male Sprague-Dawley rats. As to conditions: [3H]rauwolscine 0.5 nM, 22° C., 50 min, mean. The procedure: as §1, §2, §3, §4
Data set [3] in a line: acute toxicity, intravenous administration in adult male mice. The data set is classed as in vivo. As to conditions: mouse, in vivo, adult male mice. The procedure:
(§5) The acute toxicities of the two enantiomeric forms of terazosin and the racemic compound were tested in adult male mice by intravenous administration, and the data appear in Table 2.

In data set [4] the test system is spontaneously hypertensive rat. Nature of the data set: antihypertensive effects in the spontaneously hypertensive rat model (blood pressure and heart rate). It is filed as in vivo. As to conditions: oral, 0.1 to 10.0 mg/kg; 1, 5, 8, and 24 hours. The procedure:
The antihypertensive effects of R(+)-, S(-)-, and racemic terazosin were tested in several well-controlled experiments in the spontaneously hypertensive rat model. All three materials were dissolved in vehicle (0.2% methylcellulose) and administered orally at doses ranging from 0.1 to 10.0 mg/kg of body weight. As a control, the vehicle was administered orally. The compounds were administered in a volume of 2.0 ml/kg. All doses of the compound and vehicle were tested simultaneously in groups of eight to sixteen rats, randomly grouped.
The arterial and systolic blood pressure and heart rate were measured thirty minutes prior to and at intervals of 1, 5, 8, and 24 hours following administration of the test compounds. […] While not holding to one theory to the exclusion of others, it is believed that the tachycardia associated with administration of the S(-)-enantiomer is due to the greater affinity of the S(-)-enantiomer for binding at the α2 adrenergic receptor and the lack of tachycardia associated with administration of the R(+)-enantiomer with its low affinity for the α2 receptors.

Data set [5] has as its system adult male mice. Nature of the data set: acute toxicity, intravenous administration in adult male mice. The data set is classed as in vivo. To be noted: mice, R(+) vs S(-). The procedure:
as §5

Data set [6] deals with T2, α2 adrenoceptor (Rattus norvegicus, UniProt P22909).
T2 construct: Vas deferens tissue from male Wistar rats; from tissue; host or cells: isolated vas deferens of male Wistar rats
T2 sequence (P22909 1-465): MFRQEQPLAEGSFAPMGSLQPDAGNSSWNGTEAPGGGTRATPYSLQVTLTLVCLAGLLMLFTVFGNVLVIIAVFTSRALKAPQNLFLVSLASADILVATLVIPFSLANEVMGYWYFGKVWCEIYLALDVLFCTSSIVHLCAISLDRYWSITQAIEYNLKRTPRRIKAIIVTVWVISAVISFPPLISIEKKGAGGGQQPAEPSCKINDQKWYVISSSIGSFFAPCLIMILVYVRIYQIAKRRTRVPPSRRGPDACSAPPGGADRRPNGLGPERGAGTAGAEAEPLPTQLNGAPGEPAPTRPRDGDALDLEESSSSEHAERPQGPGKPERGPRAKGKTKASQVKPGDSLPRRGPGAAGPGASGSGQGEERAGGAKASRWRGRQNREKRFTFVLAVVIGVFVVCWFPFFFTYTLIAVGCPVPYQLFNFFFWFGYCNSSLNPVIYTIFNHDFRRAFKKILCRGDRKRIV
Briefly: α2-mediated norepinephrine release / clonidine antagonism in the stimulated rat vas deferens model. Also noted: species or system male Wistar rats. The procedure:
The effect upon α2 -stimulated norepinephrine release of R(+)-terazosin and the S(-)-enantiomer and racemic compound were evaluated in the stimulated rat vas deferens model. Vas deferens tissue from male Wistar rats was cleaned of extraneous tissue and mounted between platinum stimulating electrodes and suspended in a tissue bath. The tissues were stimulated transmurally until the preparation stabilized, generally after about 60-80 minutes. After the twitch response became constant, a stimulus was applied at a frequency of 0.1 Hz for the duration of the dose-responsestudy.
Clonidine was used as a control for inhibiting the twitch response, with 10 minute contact times at increasing doses until the stimulated response was attenuated to zero. The stimulus was then reduced to once every five minutes and the tissue washed until the twitch response was restored. After this, the 0.1 Hz signal was again applied and clonidine was administered together with test compound. All responses were calculated as percent reduction in the twitch response.
(The pA2 values is the negative logarithm of the equilibrium dissociation constant for the antagonist-receptor complex, calculated from pharmacological functional data, and is a measure of the affinity of the antagonist at the particular receptor.)

Structures are written as SMILES. Structures can show the parent of a compound that is named as a salt.

For orientation: LD50 means the dose expected to kill half of the subjects tested. A lower LD50 goes with a more toxic substance. Regarding `COc1cc2nc(N3CCN(C(=O)C4CCCO4)CC3)nc(N)c2cc1OC` (racemic) [Racemic, 2-[4-[(tetrahydro-2-furanyl)carbonyl]-1-piperazinyl]-6,7-dimethoxy-4-quinazolinamine, reference compound], the Ki in data set [1] is 643 pM. In addition, in data set [2], the “α2 Receptor pKI” value is 6.569 ± 0.129 - log M. Further, in data set [3], the LD50 was found to be 248 mg/kg. In addition, the “increase in heart rate (tachycardia)” value in data set [4] is “tachycardia was consistently observed”.

Consider `COc1cc2nc(N3CCN(C(=O)[C@H]4CCCO4)CC3)nc(N)c2cc1OC` [R(+), R(+)-2-[4-[(tetrahydro-2-furanyl)carbonyl]-1-piperazinyl]-6,7-dimethoxy-4-quinazolinamine hydrochloride], for which, in data set [1], the Ki is 964 pM. The “α2 Receptor pKI” value in data set [2] was 5.938 ± 0.178 - log M. The compound further showed an LD50 in data set [3] of 307 mg/kg. Moreover, the “LD50 increase over the corresponding S(-)-enantiomer” value in data set [5] was determined as 50%. Besides, the “increase in heart rate (tachycardia)” value in data set [4] is listed as “consistently did not produce an increase in heart rate (tachycardia)”. Moreover, the “pA2 (measurability)” value in data set [6] (rat vas deferens) is “No pA2 values could be measured”. Also, in data set [6] (tested up to 3.0 μmolar), the “α2-adrenoreceptor affinity and effect on α2-adrenoreceptor mediated norepinephrine release” value is “devoid of α2 -adrenoreceptor affinity and thus failed to affect α2 -adrenoreceptor mediated norepinephrine release”.

For `COc1cc2nc(N3CCN(C(=O)[C@@H]4CCCO4)CC3)nc(N)c2cc1OC` [S(-), S(-)-2-[4-[(tetrahydro-2-furanyl)carbonyl]-1-piperazinyl]-6,7-dimethoxy-4-quinazolinamine], the Ki in data set [1] is 643 pM. The “α2 Receptor pKI” value in data set [2] was 7.036 ± 0.199 - log M. In data set [3], this compound showed an LD50 of 205 mg/kg. Moreover, the “increase in heart rate (tachycardia)” value in data set [4] is “tachycardia was consistently observed”.

`Clc1cccc(Cl)c1N=C1NCCN1` [clonidine, reference compound]: the “effect on norepinephrine release and contractile (twitch) response” value in data set [6] (rat vas deferens, 0.1 Hz stimulation, agonist control) was “inhibits norepinephrine release from the adrenergic nerve endings and thus inhibits the contractile response of tissue”.

For the origin of these results see US5212176A, “R(+)-terazosin” (Abbott Laboratories, priority 1990, dated 1993).
